Earlier results, collected in patent publication US7335651B2, “Compositions incorporating(-)-hydroxycitric acid and related methods for promoting fat oxidation” (Interhealth Nutraceuticals Incorporated, priority 2001, dated 2008).
Like-named read-outs stand apart in the source and are kept apart here.

Legend:
[1] = biological target: T1, ATP-citrate lyase (Homo sapiens, UniProt P53396)
T1 sequence (P53396 1-1101): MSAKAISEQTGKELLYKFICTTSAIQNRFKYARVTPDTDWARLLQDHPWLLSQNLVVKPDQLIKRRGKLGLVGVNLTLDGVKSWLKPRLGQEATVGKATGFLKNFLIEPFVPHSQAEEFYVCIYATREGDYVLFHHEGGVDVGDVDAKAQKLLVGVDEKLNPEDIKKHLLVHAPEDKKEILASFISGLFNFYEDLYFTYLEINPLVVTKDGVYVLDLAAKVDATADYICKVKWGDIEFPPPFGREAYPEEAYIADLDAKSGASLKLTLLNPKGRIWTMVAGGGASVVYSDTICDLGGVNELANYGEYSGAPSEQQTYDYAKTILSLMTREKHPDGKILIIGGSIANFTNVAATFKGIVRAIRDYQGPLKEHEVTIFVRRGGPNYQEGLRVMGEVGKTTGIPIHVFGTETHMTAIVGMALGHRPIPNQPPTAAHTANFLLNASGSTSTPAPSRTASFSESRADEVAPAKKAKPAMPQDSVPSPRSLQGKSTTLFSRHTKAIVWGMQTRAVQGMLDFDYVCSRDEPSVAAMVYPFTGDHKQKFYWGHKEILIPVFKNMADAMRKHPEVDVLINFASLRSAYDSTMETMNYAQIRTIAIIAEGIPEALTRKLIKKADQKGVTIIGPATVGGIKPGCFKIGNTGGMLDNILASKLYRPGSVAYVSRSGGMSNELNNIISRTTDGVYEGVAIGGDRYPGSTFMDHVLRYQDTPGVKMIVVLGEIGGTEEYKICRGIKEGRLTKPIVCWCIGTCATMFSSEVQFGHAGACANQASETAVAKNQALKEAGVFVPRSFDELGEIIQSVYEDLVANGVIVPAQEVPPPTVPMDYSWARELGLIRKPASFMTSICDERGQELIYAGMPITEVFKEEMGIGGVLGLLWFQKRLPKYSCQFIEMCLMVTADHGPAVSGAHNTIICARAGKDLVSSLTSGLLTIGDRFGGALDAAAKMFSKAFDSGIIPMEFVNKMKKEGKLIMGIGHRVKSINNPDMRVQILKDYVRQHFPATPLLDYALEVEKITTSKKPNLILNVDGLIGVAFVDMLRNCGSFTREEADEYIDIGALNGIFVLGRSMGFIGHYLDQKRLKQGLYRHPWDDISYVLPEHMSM

[2] = acute toxicity tests
[3] = test system: growing rats; conditions: thirty days
[4] = test system: liver lipogenesis; conditions: rats; acute oral dose 2.63 mmoles/kg (roughly 594 mg/kg) before a standardized synthetic meal; up to 8 hours after the meal
[5] = test system: DNA
[6] = test system: young obese women; conditions: eight weeks

For `O=C(O)CC(O)(C(=O)O)C(O)C(=O)O` (single isomer, unassigned; (-)) [HCA, (−)-hydroxycitric acid], the “Mode of inhibition of ATP-citrate lyase” value [1] is listed as “competitive inhibitor”, the “Acute toxicity compared with citric acid” value [2] is listed as “even safer than citric acid” and the “Decrease in body weight gain” value ([3]; 0.33 mmoles/kg twice daily) is listed as “significant”. For the same compound, the “Decrease in body weight gain” value ([3]; 2.63 mmoles/kg once daily) was “significant”, the “Decrease in body weight gain” value ([3]; single daily administration) was “no significant reductions” and the “Decrease in liver lipogenesis” value [4] was “roughly 70%”.
In the case of chromium picolinate, the “DNA damage and mutagenicity” value [5] is listed as “damage DNA and be mutagenic”, the “Body weight change with exercise” value ([6]; in combination with exercise, O-NBC at 400 micrograms chromium per day) is listed as “no change in weight” and the “Body weight change without exercise” value ([6]; no exercise) is listed as “significant weight gain”.
